Source: paper PMC12037426, “Lipid Metabolism-Related Enzyme Inhibition and Antioxidant Potential of the Extracts and Phytochemical Compounds from Trachystemon orientalis (L.) D.Don” (Plant Foods for Human Nutrition (Dordrecht, Netherlands), 2025)
Read-outs that look alike come from different tables or passages of the source.

What was measured:
[1] = test system: RAW264.7 macrophage cells; set-up: method as in PMID 27514857; details: cited from earlier work
PL = details: cited from earlier work
[2] = set-up: method as in PMID 28122265; details: cited from earlier work
[3] = test system: hypercholesterolemic rats; set-up: method as in PMID 39615784; details: 100 mg/kg, hypercholesterolemic rats on a high-fat diet; cited from earlier work
[4] = Ferric reducing antioxidant power (FRAP) assay
Procedure: The Fe(II)-TPTZ complex, generated by the reduction of the TPTZ complex in the presence of antioxidants, has a blue colour and is measured at 595 nm. […] Absorbance measurements were recorded at 595 nm after 20 minutes at room temperature. […] FRAP values were reported as μM Trolox equivalents per gram of material.

Pancreatic lipase (PL) = target: T1, Pancreatic lipase (PL) (Homo sapiens, UniProt P16233); experiment: Pancreatic lipase (PL) inhibition, p-nitrophenyl butyrate substrate; format: biochemical; details: for IC50: mean ± SD of triplicate, read-out: Enzyme inhibitory activities IC50 ± SD, Pancreatic lipase (PL) (converted)
T1 sequence (P16233 17-465): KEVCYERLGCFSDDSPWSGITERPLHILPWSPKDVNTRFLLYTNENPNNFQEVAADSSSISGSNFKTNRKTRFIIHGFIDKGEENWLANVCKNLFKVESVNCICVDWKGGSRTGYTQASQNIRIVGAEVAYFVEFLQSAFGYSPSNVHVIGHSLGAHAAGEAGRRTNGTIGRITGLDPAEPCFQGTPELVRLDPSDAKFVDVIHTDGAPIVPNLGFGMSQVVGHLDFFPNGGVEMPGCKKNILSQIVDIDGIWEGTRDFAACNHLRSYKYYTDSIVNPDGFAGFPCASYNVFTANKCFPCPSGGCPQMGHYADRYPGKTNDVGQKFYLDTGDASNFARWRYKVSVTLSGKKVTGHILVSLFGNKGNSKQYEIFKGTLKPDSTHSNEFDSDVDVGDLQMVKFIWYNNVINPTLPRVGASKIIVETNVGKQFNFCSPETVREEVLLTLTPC
Procedure: PL inhibition was assessed utilizing p-nitrophenyl butyrate as a substrate. The extracts were diluted using a buffer solution (0.1 M Tris-HCl, pH 8.0) to achieve a final concentration range of 12.5-400 µg/mL. […] An enzyme solution (EC 3.1.1.3, 200 units/mL) and a substrate solution (10 mM) were formulated in a buffer solution.
The experimental procedure was structured in microplate wells A (90 µL enzyme solution, 5 µL substrate solution, 5 µL buffer solution), B (90 µL enzyme solution, 10 µL buffer solution), C (90 µL enzyme solution, 5 µL sample solution, 5 µL substrate solution), and D (90 µL enzyme solution, 5 µL sample solution, 5 µL buffer solution). Microplates were incubated at 37 °C for 15 minutes before to and following the addition of substrates. The absorbance values were measured at 405 nm, and the percentage of pancreatic lipase enzyme inhibition was calculated. All concentrations were conducted in triplicate.
% Pancreatic lipase inhibition = [(A-B)-(C-D)/(A-B)] × 100
The IC50 values of the samples on lipase were derived using the graph equation established by plotting the observed percentage of enzyme inhibition against the logarithm of the concentrations (ordinate and abscissa).

[5] = Cupric-reducing antioxidant capacity (CUPRAC) assay
Procedure: CUPRAC assay was performed according to the modified protocol. Methanolic solutions of Trolox, utilized as a reference, were produced at varying concentrations (1000-62.5 μM). Subsequently, 1 mL of NH4CH3COO and 1 mL of CuCl2.2H2O and 1 of mL neocuproine (Nc) solutions were combined, followed by the addition of 0.5 mL of the sample solution (10 mg/mL) and 0.6 mL of distilled water (1.1-x) water into the mixture. Following the mixing of the tubes and incubation in darkness at ambient temperature for 30 minutes, the absorbance of the samples was measured at 450 nm. The antioxidant capacity of the samples was quantified as TEAC (μM) by comparison with Trolox, the reference chemical.

3T3-L1 adipocytes = details: cited from earlier work
[6] = test system: hypercholesterolemic hamsters; details: cited from earlier work

In the case of `O=C(O)C(O)Cc1ccc(O)c(O)c1` (stereo not shown) [Danshensu, 3,4-dihydroxyphenyl lactic acid], the lipid accumulation [1] is listed as “reduce lipid accumulation”, the “PL IC50” value (PL) is listed as 65.160 ± 4.443 mg/L and the radical scavenging ability [2] is listed as “equivalent to that of quercetin”.
In the case of `O=C(/C=C/c1ccc(O)c(O)c1)O[C@H](Cc1ccc(O)c(O)c1)C(=O)O` [Rosmarinic acid], the “cholesterol and triglyceride levels” value [3] is listed as “improve cholesterol and triglyceride levels comparably to simvastatin”, the FRAP [4] is listed as 1274.400 ± 1.633 µM TEAC and the “FRAP (iron reducing antioxidant power)” value ([4]; sample 10 mg/mL) is listed as 1274.400 ± 1.633 µM Trolox equivalent/gram. For the same compound, the IC50 (Pancreatic lipase (PL)) was 134 µM, the CUPRAC [5] was 1801.389 ± 5.500 µM TEAC and the “CUPRAC (copper reducing antioxidant power)” value ([5]; sample 10 mg/mL) was 1801.389 ± 5.500 µM Trolox equivalent/gram. The “PL inhibitory activity IC50” value (PL) was 125.2 mg/L, the “lipase inhibitory activity IC50” value (PL) was 49.421 ± 1.448 mg/L and the IC50 (PL; read-out: lipase inhibitory activity IC50) was 62.8 ± 2.7 µM. For the same compound, the radical scavenging ability [2] was “equivalent to that of quercetin”.
In the case of `CC[C@H](CC[C@@H](C)[C@H]1CC[C@H]2[C@@H]3CC=C4C[C@@H](O)CC[C@]4(C)[C@H]3CC[C@]12C)C(C)C` [β-sitosterol], the “adipogenesis (intracellular triglyceride content and lipid accumulation)” value (3T3-L1 adipocytes) is listed as “efficiently prevented adipogenesis”, the cytotoxicity (3T3-L1 adipocytes) is listed as “without including notable cytotoxicity” and the IC50 (Pancreatic lipase (PL)) is listed as 101 µM. The inhibition at 100 µg/mL (Pancreatic lipase (PL); read-out: PL inhibition) was 68.5%, the “cholesterol absorption and plasma cholesterol levels” value [6] was “decrease cholesterol absorption and plasma cholesterol levels” and the PL inhibition (PL; 100 µg/mL) was 79.1 ± 11.3%. The PL inhibition (PL; 4 mg/mL) was 60.67% ± 0.53, the PL inhibition (PL; first value of two) was 2.99 ± 0.80% and the PL inhibition (PL; second value of two) was 8.80 ± 4.15%.
